Data from ChEMBL document CHEMBL1147125, “Microbial transformation of (-)-guaiol and antibacterial activity of its transformed products” (2007).

How the values were obtained:
Pseudomonas aeruginosa = experiment: Antibacterial activity against Pseudomonas aeruginosa at 100 ug/100 uL after 24 hrs; type: functional
Bacillus subtilis = experiment: Antibacterial activity against Bacillus subtils at 100 ug/100 uL after 24 hrs; type: functional
Shigella flexneri = experiment: Antibacterial activity against Shigella flexneri at 100 ug/100 uL after 24 hrs; type: functional
Salmonella typhi = experiment: Antibacterial activity against Salmonella typhi at 100 ug/100 uL after 24 hrs; type: functional, Salmonella enterica subsp. enterica serovar Typhi
Staphylococcus aureus = experiment: Antibacterial activity against Staphylococcus aureus at 100 ug/100 uL after 24 hrs; type: functional
Escherichia coli = experiment: Antibacterial activity against Escherichia coli at 100 ug/100 uL after 24 hrs; type: functional

Q: Which results are given for `C[C@H]1CC[C@@H](C(C)(C)O)C(=O)C2=C1CC[C@@H]2C`?
A: inhibition zone (IZ) (Pseudomonas aeruginosa): 13 mm; inhibition zone (IZ) (Bacillus subtilis): 11 mm; inhibition zone (IZ) (Shigella flexneri): 10 mm

Q: Which “inhibition zone (IZ)” value (Salmonella typhi) does the source give for `C[C@@H]1C2=CC[C@H](C)[C@@H]2C[C@H](C(C)(C)O)C[C@@H]1O` here?
A: 16 mm

Q: And the “inhibition zone (IZ)” value (Pseudomonas aeruginosa)?
A: 20 mm

Q: For `C[C@@H]1C2=C(C[C@H](C(C)(C)O)C[C@H]1O)[C@@H](C)[C@@H](O)C2`, which “inhibition zone (IZ)” value (Salmonella typhi) is on record?
A: 15 mm

Q: And the “inhibition zone (IZ)” value (Pseudomonas aeruginosa)?
A: 17 mm

Q: And the “inhibition zone (IZ)” value (Staphylococcus aureus)?
A: 20 mm

Q: How did the “inhibition zone (IZ)” value (Pseudomonas aeruginosa) turn out when `C[C@H]1CC[C@@H](C(C)(C)O)C[C@@H]2C1=CC(=O)[C@@H]2C` was run?
A: 13 mm

Q: What about the “inhibition zone (IZ)” value (Bacillus subtilis) of the same molecule?
A: 11 mm

Q: `C[C@@H]1[C@@H]2C[C@H](C(C)(C)O)CC[C@H](C)C2=C[C@@H]1O` was tested. Which “inhibition zone (IZ)” value (Salmonella typhi) did it give?
A: 15 mm

Q: What about the “inhibition zone (IZ)” value (Pseudomonas aeruginosa) of the same molecule?
A: 20 mm

Q: `C[C@H]1CC[C@@H](C(C)(C)O)CC2=C1CC[C@@H]2C` [GUAIOL] was tested. Which “inhibition zone (IZ)” value (Salmonella typhi) did it give?
A: 24 mm

Q: What about the “inhibition zone (IZ)” value (Pseudomonas aeruginosa) of the same molecule?
A: 17 mm

Q: And the “inhibition zone (IZ)” value (Bacillus subtilis)?
A: 15 mm

Q: And the “inhibition zone (IZ)” value (Escherichia coli)?
A: 16 mm

Q: And the “inhibition zone (IZ)” value (Shigella flexneri)?
A: 17 mm

Q: Which results are given for `C[C@@H](O)[C@H]1C(=O)N2C(C(=O)O)=C(SCCNC=N)C[C@H]12` [IMIPENEM ANHYDROUS]?
A: inhibition zone (IZ) (Salmonella typhi): 25 mm; inhibition zone (IZ) (Pseudomonas aeruginosa): 24 mm; inhibition zone (IZ) (Bacillus subtilis): 33 mm; inhibition zone (IZ) (Staphylococcus aureus): 33 mm; inhibition zone (IZ) (Escherichia coli): 30 mm; inhibition zone (IZ) (Shigella flexneri): 27 mm
